Laboratory results from ChEMBL document CHEMBL1158822, “Anthrabenzoxocinones from Streptomyces sp. as liver X receptor ligands and antibacterial agents” (J Nat Prod, 2005).
≈ marks a conversion by molar mass, not a printed value.

Legend:
[1] = biological target: T1, Oxysterols receptor LXR-alpha (Homo sapiens, UniProt Q13133); test: Displacement of [3H2]F3-methyl AA from LXRalpha by scintillation proximity assay
T1 sequence (Q13133 whole entry): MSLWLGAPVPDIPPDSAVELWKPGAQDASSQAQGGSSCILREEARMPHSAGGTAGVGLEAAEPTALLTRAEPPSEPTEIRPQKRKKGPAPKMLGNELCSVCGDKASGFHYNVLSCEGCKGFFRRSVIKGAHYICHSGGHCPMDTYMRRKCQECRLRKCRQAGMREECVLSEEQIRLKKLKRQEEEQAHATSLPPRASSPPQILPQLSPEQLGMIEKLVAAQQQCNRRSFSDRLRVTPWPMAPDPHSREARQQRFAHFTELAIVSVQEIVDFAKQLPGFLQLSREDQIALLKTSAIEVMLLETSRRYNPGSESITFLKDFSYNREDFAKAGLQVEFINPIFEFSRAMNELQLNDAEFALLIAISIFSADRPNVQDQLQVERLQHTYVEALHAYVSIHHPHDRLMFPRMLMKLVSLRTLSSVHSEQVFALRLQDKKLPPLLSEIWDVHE

[2] = biological target: T2, Oxysterols receptor LXR-beta (Homo sapiens, UniProt P55055); test: Displacement of [3H2]F3-methyl AA from LXRbeta by scintillation proximity assay
T2 sequence (P55055 whole entry): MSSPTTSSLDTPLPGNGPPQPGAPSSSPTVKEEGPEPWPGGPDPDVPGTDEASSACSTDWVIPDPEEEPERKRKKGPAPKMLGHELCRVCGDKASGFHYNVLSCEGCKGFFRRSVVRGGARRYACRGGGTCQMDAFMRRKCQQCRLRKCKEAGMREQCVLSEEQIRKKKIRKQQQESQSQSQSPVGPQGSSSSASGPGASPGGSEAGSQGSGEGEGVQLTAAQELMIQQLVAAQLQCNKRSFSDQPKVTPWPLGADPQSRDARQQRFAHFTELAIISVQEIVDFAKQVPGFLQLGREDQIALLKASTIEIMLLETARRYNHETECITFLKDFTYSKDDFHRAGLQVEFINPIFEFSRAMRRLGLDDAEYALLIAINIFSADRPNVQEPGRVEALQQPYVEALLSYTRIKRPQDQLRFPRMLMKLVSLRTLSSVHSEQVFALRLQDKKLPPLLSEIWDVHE

Staphylococcus aureus [3] = test: Inhibition of type II fatty acid synthesis in Staphylococcus aureus using n-octanoyl-CoA and [14C]malonyl CoA substrate
Staphylococcus aureus [4] = test: Inhibition of phospholipid biosynthesis in Staphylococcus aureus
Staphylococcus aureus [5] = test: Inhibition of protein biosynthesis in Staphylococcus aureus
Staphylococcus aureus [6] = test: Inhibition of RNA biosynthesis in Staphylococcus aureus
Staphylococcus aureus [7] = test: Inhibition of DNA biosynthesis in Staphylococcus aureus
Staphylococcus aureus [8] = test: Antibacterial activity against methicillin-sensitive Staphylococcus aureus MB2685; assay type: functional
Staphylococcus aureus [9] = test: Antibacterial activity against methicillin-resistant Staphylococcus aureus COL MB5393; assay type: functional
Streptococcus pneumoniae = test: Antibacterial activity against Streptococcus pneumoniae MB212; assay type: functional
Enterococcus faecalis = test: Antibacterial activity against vancomycin-sensitive Enterococcus faecalis CL8516; assay type: functional
Enterococcus faecium = test: Antibacterial activity against vancomycin-resistant Enterococcus faecium CL5791; assay type: functional
Escherichia coli = test: Antibacterial activity against lpxC mutant gene expressing Escherichia coli MB4902; assay type: functional

| Compound | IC50 [1] [µM] | IC50 [2] [µM] | IC50 (Staphylococcus aureus [3]) [µg/mL] | IC50 (Staphylococcus aureus [4]) [µg/mL] | IC50 (Staphylococcus aureus [5]) [µg/mL] | IC50 (Staphylococcus aureus [6]) [µg/mL] | IC50 (Staphylococcus aureus [7]) [µg/mL] | MIC (Staphylococcus aureus [8]) [µg/mL] | MIC (Staphylococcus aureus [9]) [µg/mL] | MIC (Streptococcus pneumoniae) [µg/mL] | MIC (Enterococcus faecalis) [µg/mL] | MIC (Enterococcus faecium) [µg/mL] | MIC (Escherichia coli) [µg/mL] |
| --- | --- | --- | --- | --- | --- | --- | --- | --- | --- | --- | --- | --- | --- |
| COc1cc(C)c2c(c1)O[C@@]1(C)Cc3cc4c(c(O)c3[C@@H]2O1)C(=O)c1c(O)c(Cl)c(O)c(Cl)c1C4(C)C | 10 | > 15 | 11.4 (≈ 21 µM) | 0.21 (≈ 0.386 µM) | 0.21 (≈ 0.386 µM) | 0.21 (≈ 0.386 µM) | 0.21 (≈ 0.386 µM) | 0.5 (≈ 0.92 µM) | 1 (≈ 1.84 µM) | 1 (≈ 1.84 µM) | 1 (≈ 1.84 µM) | 2 (≈ 3.68 µM) | 0.5 (≈ 0.92 µM) |
| Cc1cc(O)cc2c1[C@H]1O[C@](C)(Cc3cc4c(c(O)c31)C(=O)c1c(O)cc(O)cc1C4(C)C)O2 | – | – | 288 (≈ 625 µM) | 1 (≈ 2.17 µM) | 1 (≈ 2.17 µM) | 1 (≈ 2.17 µM) | 1 (≈ 2.17 µM) | 2 (≈ 4.34 µM) | 2 (≈ 4.34 µM) | 1 (≈ 2.17 µM) | 0.5 (≈ 1.09 µM) | 2 (≈ 4.34 µM) | 2 (≈ 4.34 µM) |
| Cc1cc(O)cc2c1[C@@H]1O[C@@](C)(Cc3cc4c(c(O)c31)C(=O)c1c(O)cc(O)cc1C4(C)C)O2 | – | – | 245 (≈ 532 µM) | – | – | – | – | 1 (≈ 2.17 µM) | 0.5 (≈ 1.09 µM) | 1 (≈ 2.17 µM) | 1 (≈ 2.17 µM) | 0.5 (≈ 1.09 µM) | 1 (≈ 2.17 µM) |
| O=C(N[C@H](CO)[C@H](O)c1ccc([N+](=O)[O-])cc1)C(Cl)Cl [CHLORAMPHENICOL] | – | – | > 250 | – | – | – | – | 6.25 (≈ 19.3 µM) | 6.25 (≈ 19.3 µM) | 1.56 (≈ 4.83 µM) | 1.56 (≈ 4.83 µM) | 6.25 (≈ 19.3 µM) | 1.56 (≈ 4.83 µM) |
| CO[C@H]1/C=C/O[C@@]2(C)Oc3c(C)c(O)c4c(O)c(c(/C=N/N5CCN(C)CC5)c(O)c4c3C2=O)NC(=O)/C(C)=C\C=C\[C@H](C)[C@H](O)[C@@H](C)[C@@H](O)[C@@H](C)[C@H](OC(C)=O)[C@@H]1C [RIFAMPIN] | – | – | > 250 | – | – | – | – | 0.002 (≈ 0.00243 µM) | 0.002 (≈ 0.00243 µM) | 0.004 (≈ 0.00486 µM) | 0.008 (≈ 0.00972 µM) | 0.04 (≈ 0.0486 µM) | 0.02 (≈ 0.0243 µM) |
